Measurements from ChEMBL document CHEMBL2069290, “Synthesis and biological evaluation of novel oxindole derivatives for imaging neurofibrillary tangles in Alzheimer's disease” (Bioorg Med Chem Lett, 2012).
Calls of active or inactive are those of the source. No cut-off for these calls is given here.

Assays:
[1] = system: Blood; assay: Biodistribution in ddY mouse blood at 3.3 to 6.7 kBq, iv after 2 mins by gamma counting; format: ADME, organism-based; conditions: in vivo
[2] = system: Blood; assay: Biodistribution in ddY mouse blood at 3.3 to 6.7 kBq, iv after 10 mins by gamma counting; format: ADME, organism-based; conditions: in vivo
[3] = system: Blood; assay: Biodistribution in ddY mouse blood at 3.3 to 6.7 kBq, iv after 30 mins by gamma counting; format: ADME, organism-based; conditions: in vivo, 0.5 h
[4] = system: Blood; assay: Biodistribution in ddY mouse blood at 3.3 to 6.7 kBq, iv after 60 mins by gamma counting; format: ADME, organism-based; conditions: in vivo, 1 h
[5] = system: Liver; assay: Biodistribution in ddY mouse liver at 3.3 to 6.7 kBq, iv after 2 mins by gamma counting; format: ADME, organism-based; conditions: in vivo
[6] = system: Liver; assay: Biodistribution in ddY mouse liver at 3.3 to 6.7 kBq, iv after 10 mins by gamma counting; format: ADME, organism-based; conditions: in vivo
[7] = system: Liver; assay: Biodistribution in ddY mouse liver at 3.3 to 6.7 kBq, iv after 30 mins by gamma counting; format: ADME, organism-based; conditions: in vivo, 0.5 h
[8] = system: Liver; assay: Biodistribution in ddY mouse liver at 3.3 to 6.7 kBq, iv after 60 mins by gamma counting; format: ADME, organism-based; conditions: in vivo, 1 h
[9] = system: Kidney; assay: Biodistribution in ddY mouse kidney at 3.3 to 6.7 kBq, iv after 2 mins by gamma counting; format: ADME, organism-based; conditions: in vivo
[10] = system: Kidney; assay: Biodistribution in ddY mouse kidney at 3.3 to 6.7 kBq, iv after 10 mins by gamma counting; format: ADME, organism-based; conditions: in vivo
[11] = system: Kidney; assay: Biodistribution in ddY mouse kidney at 3.3 to 6.7 kBq, iv after 30 mins by gamma counting; format: ADME, organism-based; conditions: in vivo, 0.5 h
[12] = system: Kidney; assay: Biodistribution in ddY mouse kidney at 3.3 to 6.7 kBq, iv after 60 mins by gamma counting; format: ADME, organism-based; conditions: in vivo, 1 h
[13] = system: Intestine; assay: Biodistribution in ddY mouse intestine at 3.3 to 6.7 kBq, iv after 2 mins by gamma counting; format: ADME, organism-based; conditions: in vivo
[14] = system: Intestine; assay: Biodistribution in ddY mouse intestine at 3.3 to 6.7 kBq, iv after 10 mins by gamma counting; format: ADME, organism-based; conditions: in vivo
[15] = system: Intestine; assay: Biodistribution in ddY mouse intestine at 3.3 to 6.7 kBq, iv after 30 mins by gamma counting; format: ADME, organism-based; conditions: in vivo, 0.5 h
[16] = system: Intestine; assay: Biodistribution in ddY mouse intestine at 3.3 to 6.7 kBq, iv after 60 mins by gamma counting; format: ADME, organism-based; conditions: in vivo, 1 h
[17] = system: Spleen; assay: Biodistribution in ddY mouse spleen at 3.3 to 6.7 kBq, iv after 2 mins by gamma counting; format: ADME, organism-based; conditions: in vivo
[18] = system: Spleen; assay: Biodistribution in ddY mouse spleen at 3.3 to 6.7 kBq, iv after 10 mins by gamma counting; format: ADME, organism-based; conditions: in vivo
[19] = system: Spleen; assay: Biodistribution in ddY mouse spleen at 3.3 to 6.7 kBq, iv after 30 mins by gamma counting; format: ADME, organism-based; conditions: in vivo, 0.5 h
[20] = system: Spleen; assay: Biodistribution in ddY mouse spleen at 3.3 to 6.7 kBq, iv after 60 mins by gamma counting; format: ADME, organism-based; conditions: in vivo, 1 h
[21] = system: Pancreas; assay: Biodistribution in ddY mouse pancreas at 3.3 to 6.7 kBq, iv after 2 mins by gamma counting; format: ADME, organism-based; conditions: in vivo
[22] = system: Pancreas; assay: Biodistribution in ddY mouse pancreas at 3.3 to 6.7 kBq, iv after 10 mins by gamma counting; format: ADME, organism-based; conditions: in vivo
[23] = system: Pancreas; assay: Biodistribution in ddY mouse pancreas at 3.3 to 6.7 kBq, iv after 30 mins by gamma counting; format: ADME, organism-based; conditions: in vivo, 0.5 h
[24] = system: Pancreas; assay: Biodistribution in ddY mouse pancreas at 3.3 to 6.7 kBq, iv after 60 mins by gamma counting; format: ADME, organism-based; conditions: in vivo, 1 h
[25] = system: Heart; assay: Biodistribution in ddY mouse heart at 3.3 to 6.7 kBq, iv after 2 mins by gamma counting; format: ADME, organism-based; conditions: in vivo
[26] = system: Heart; assay: Biodistribution in ddY mouse heart at 3.3 to 6.7 kBq, iv after 10 mins by gamma counting; format: ADME, organism-based; conditions: in vivo
[27] = system: Heart; assay: Biodistribution in ddY mouse heart at 3.3 to 6.7 kBq, iv after 30 mins by gamma counting; format: ADME, organism-based; conditions: in vivo, 0.5 h
[28] = system: Heart; assay: Biodistribution in ddY mouse heart at 3.3 to 6.7 kBq, iv after 60 mins by gamma counting; format: ADME, organism-based; conditions: in vivo, 1 h
[29] = system: Stomach; assay: Biodistribution in ddY mouse stomach assessed per organ at 3.3 to 6.7 kBq, iv after 2 mins by gamma counting; format: ADME, organism-based; conditions: in vivo
[30] = system: Stomach; assay: Biodistribution in ddY mouse stomach assessed per organ at 3.3 to 6.7 kBq, iv after 10 mins by gamma counting; format: ADME, organism-based; conditions: in vivo
[31] = system: Stomach; assay: Biodistribution in ddY mouse stomach assessed per organ at 3.3 to 6.7 kBq, iv after 30 mins by gamma counting; format: ADME, organism-based; conditions: in vivo, 0.5 h
[32] = system: Stomach; assay: Biodistribution in ddY mouse stomach assessed per organ at 3.3 to 6.7 kBq, iv after 60 mins by gamma counting; format: ADME, organism-based; conditions: in vivo, 1 h
[33] = system: Brain; assay: Biodistribution in ddY mouse brain at 3.3 to 6.7 kBq, iv after 2 mins by gamma counting; format: ADME, organism-based; conditions: in vivo
[34] = system: Brain; assay: Biodistribution in ddY mouse brain at 3.3 to 6.7 kBq, iv after 10 mins by gamma counting; format: ADME, organism-based; conditions: in vivo
[35] = system: Brain; assay: Biodistribution in ddY mouse brain at 3.3 to 6.7 kBq, iv after 30 mins by gamma counting; format: ADME, organism-based; conditions: in vivo, 0.5 h
[36] = system: Brain; assay: Biodistribution in ddY mouse brain at 3.3 to 6.7 kBq, iv after 60 mins by gamma counting; format: ADME, organism-based; conditions: in vivo, 1 h
[37] = system: Brain; assay: Ratio of drug uptake in ddY mouse brain after 2 mins to drug uptake in ddY mouse brain after 30 mins; format: ADME, tissue-based; conditions: in vivo
[38] = species: Homo sapiens; assay: Selectivity ratio of EC50 for amyloid beta(1 to 42) to EC50 for human Tau
[39] = molecular target: Microtubule-associated protein tau (Homo sapiens, UniProt P10636); assay: Binding affinity to human Tau aggregates after 30 mins by Thioflavin-S-based fluorescence assay
Sequence of Microtubule-associated protein tau (P10636 whole entry): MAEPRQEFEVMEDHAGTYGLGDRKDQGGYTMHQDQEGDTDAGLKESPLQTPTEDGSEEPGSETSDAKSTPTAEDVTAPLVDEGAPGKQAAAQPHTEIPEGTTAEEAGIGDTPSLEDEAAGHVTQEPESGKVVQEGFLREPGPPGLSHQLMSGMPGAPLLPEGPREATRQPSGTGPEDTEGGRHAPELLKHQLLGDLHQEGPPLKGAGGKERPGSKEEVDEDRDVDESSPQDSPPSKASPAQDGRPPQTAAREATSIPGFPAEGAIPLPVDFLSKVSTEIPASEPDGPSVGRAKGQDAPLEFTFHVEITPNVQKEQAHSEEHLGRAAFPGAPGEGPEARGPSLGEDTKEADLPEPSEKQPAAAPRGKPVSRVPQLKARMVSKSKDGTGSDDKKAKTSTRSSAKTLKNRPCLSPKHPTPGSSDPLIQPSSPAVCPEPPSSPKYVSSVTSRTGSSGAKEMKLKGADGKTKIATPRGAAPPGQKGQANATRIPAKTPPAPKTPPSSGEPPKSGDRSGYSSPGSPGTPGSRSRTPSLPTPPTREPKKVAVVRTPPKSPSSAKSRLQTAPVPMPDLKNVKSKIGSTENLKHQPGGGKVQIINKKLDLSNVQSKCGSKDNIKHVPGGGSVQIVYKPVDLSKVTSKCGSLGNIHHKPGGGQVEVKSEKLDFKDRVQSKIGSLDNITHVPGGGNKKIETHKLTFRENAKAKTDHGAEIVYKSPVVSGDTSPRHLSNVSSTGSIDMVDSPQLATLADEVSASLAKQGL

[40] = molecular target: Amyloid-beta precursor protein (Homo sapiens, UniProt P05067); assay: Binding affinity to amyloid beta(1 to 42) aggregates after 30 mins by Thioflavin-S-based fluorescence assay
Sequence of Amyloid-beta precursor protein (P05067 whole entry): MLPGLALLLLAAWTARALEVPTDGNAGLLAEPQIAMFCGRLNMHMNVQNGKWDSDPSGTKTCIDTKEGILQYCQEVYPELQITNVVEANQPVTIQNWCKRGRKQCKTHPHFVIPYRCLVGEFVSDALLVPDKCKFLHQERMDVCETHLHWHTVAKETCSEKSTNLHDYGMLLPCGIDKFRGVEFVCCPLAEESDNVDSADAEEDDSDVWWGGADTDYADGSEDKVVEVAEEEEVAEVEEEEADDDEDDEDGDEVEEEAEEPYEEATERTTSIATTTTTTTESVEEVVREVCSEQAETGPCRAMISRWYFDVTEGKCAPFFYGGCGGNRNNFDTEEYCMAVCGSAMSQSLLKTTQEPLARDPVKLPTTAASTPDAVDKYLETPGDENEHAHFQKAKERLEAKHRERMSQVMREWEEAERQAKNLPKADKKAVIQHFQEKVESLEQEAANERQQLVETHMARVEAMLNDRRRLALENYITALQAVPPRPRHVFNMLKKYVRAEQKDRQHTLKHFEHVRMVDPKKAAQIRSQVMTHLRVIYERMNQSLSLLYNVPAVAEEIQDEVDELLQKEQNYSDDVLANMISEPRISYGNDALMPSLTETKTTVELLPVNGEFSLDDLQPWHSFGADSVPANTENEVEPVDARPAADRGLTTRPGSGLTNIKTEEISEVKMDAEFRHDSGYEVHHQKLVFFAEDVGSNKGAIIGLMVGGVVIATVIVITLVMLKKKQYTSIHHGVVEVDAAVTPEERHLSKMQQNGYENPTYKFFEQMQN

[41] = species: Homo sapiens; assay: Selectivity ratio of Ki for amyloid beta(1 to 42) to Ki for human Tau
[42] = species: Homo sapiens; assay: Selectivity ratio of Kd for amyloid beta(1 to 42) to Kd for human Tau
[43] = species: Homo sapiens; assay: Binding affinity to neurofibrillary tangles in entorhinal cortex of alzheimer disease patient after 10 mins by Thioflavin-S-based fluorescence microscopy; format: tissue-based

CN(C)c1ccc(/C=C2\Nc3ccc([125I])cc3C2=O)cc1
Drug uptake [1]: 4.7 % ID/g
Drug uptake [2]: 3.76 % ID/g
Drug uptake [3]: 2.06 % ID/g
Drug uptake [4]: 2.23 % ID/g
Drug uptake [5]: 9.81 % ID/g
Drug uptake [6]: 11.29 % ID/g
Drug uptake [7]: 9.85 % ID/g
Drug uptake [8]: 8.9 % ID/g
Drug uptake [9]: 11.93 % ID/g
Drug uptake [10]: 16.57 % ID/g
Drug uptake [11]: 11.38 % ID/g
Drug uptake [12]: 7.55 % ID/g
Drug uptake [13]: 2.13 % ID/g
Drug uptake [14]: 3.17 % ID/g
Drug uptake [15]: 7.05 % ID/g
Drug uptake [16]: 10.7 % ID/g
Drug uptake [17]: 3.2 % ID/g
Drug uptake [18]: 4.46 % ID/g
Drug uptake [19]: 4.08 % ID/g
Drug uptake [20]: 2.17 % ID/g
Drug uptake [21]: 4.4 % ID/g
Drug uptake [22]: 2.54 % ID/g
Drug uptake [23]: 1.39 % ID/g
Drug uptake [24]: 0.94 % ID/g
Drug uptake [25]: 7.94 % ID/g
Drug uptake [26]: 3.42 % ID/g
Drug uptake [27]: 2.23 % ID/g
Drug uptake [28]: 2.11 % ID/g
Drug uptake [29]: 0.96 %ID
Drug uptake [30]: 1.67 %ID
Drug uptake [31]: 2.1 %ID
Drug uptake [32]: 3.8 %ID
Drug uptake [33]: 2.52 % ID/g
Drug uptake [34]: 1.4 % ID/g
Drug uptake [35]: 0.63 % ID/g
Drug uptake [36]: 0.36 % ID/g
Ratio [37]: 4

O=C1/C(=C/c2ccc(-c3cccc([125I])c3)o2)NC(=S)N1CCc1c[nH]cn1
Ratio [37]: 2.33

CNc1ccc(-c2ccc3ccccc3n2)cc1
Ratio EC50 [38]: 1.65

Nc1ccc(-c2ccc3cc(OCC[18F])ccc3n2)cc1
Ratio [37]: < 2

CN(C)c1ccc(C=C2C(=O)Nc3ccc(I)cc32)cc1
Ki [39]: 599 nM
Ki [40]: 4670 nM
Ratio Ki [41]: 7.8

O=C1/C(=C/c2ccc(-c3cccc(I)c3)o2)NC(=S)N1CCc1c[nH]cn1
Ratio Ki [41]: 7.33

CNc1ccc(C=C2C(=O)Nc3ccc(I)cc32)cc1
Ki [39]: 1430 nM
Ki [40]: 5060 nM
Ratio Ki [41]: 3.54

CN(C)c1ccc(C=C2C(=O)Nc3ccc([125I])cc32)cc1
Drug uptake [1]: 1.77 % ID/g
Drug uptake [2]: 1.64 % ID/g
Drug uptake [3]: 1.07 % ID/g
Drug uptake [4]: 0.69 % ID/g
Drug uptake [5]: 12.37 % ID/g
Drug uptake [6]: 10.56 % ID/g
Drug uptake [7]: 9.43 % ID/g
Drug uptake [8]: 6.89 % ID/g
Drug uptake [9]: 9.63 % ID/g
Drug uptake [10]: 5.04 % ID/g
Drug uptake [11]: 3.83 % ID/g
Drug uptake [12]: 2.51 % ID/g
Drug uptake [13]: 1.57 % ID/g
Drug uptake [14]: 2.54 % ID/g
Drug uptake [15]: 8.33 % ID/g
Drug uptake [16]: 12.11 % ID/g
Drug uptake [17]: 3.66 % ID/g
Drug uptake [18]: 3.37 % ID/g
Drug uptake [19]: 1.2 % ID/g
Drug uptake [20]: 0.66 % ID/g
Drug uptake [21]: 5.08 % ID/g
Drug uptake [22]: 3.19 % ID/g
Drug uptake [23]: 1.76 % ID/g
Drug uptake [24]: 0.6 % ID/g
Drug uptake [25]: 10.17 % ID/g
Drug uptake [26]: 2.53 % ID/g
Drug uptake [27]: 1.3 % ID/g
Drug uptake [28]: 0.61 % ID/g
Drug uptake [29]: 0.91 %ID
Drug uptake [30]: 1.64 %ID
Drug uptake [31]: 3.52 %ID
Drug uptake [32]: 3.57 %ID
Drug uptake [33]: 2.47 % ID/g
Drug uptake [34]: 2.1 % ID/g
Drug uptake [35]: 1.43 % ID/g
Drug uptake [36]: 0.44 % ID/g
Ratio [37]: 1.7

CN(C)c1ccc(/N=N/c2nc3ccc(OCCOCCOCCF)cc3s2)cc1
Ratio [42]: 1.54

CN(C)c1ccc(/N=N/c2nc3ccc(OCCOCCOCC[18F])cc3s2)cc1
Ratio [37]: 1.23

CN(C)c1ccc(/C=C2\Nc3ccc(I)cc3C2=O)cc1
Ki [39]: 17 nM
Ki [40]: 31 nM
Ratio Ki [41]: 1.77
Activity [43]: Active

CNc1ccc(/C=C2\Nc3ccc([125I])cc3C2=O)cc1
Drug uptake [1]: 7.5 % ID/g
Drug uptake [2]: 4.97 % ID/g
Drug uptake [3]: 3.3 % ID/g
Drug uptake [4]: 1.95 % ID/g
Drug uptake [5]: 9.51 % ID/g
Drug uptake [6]: 12.4 % ID/g
Drug uptake [7]: 11.59 % ID/g
Drug uptake [8]: 6.26 % ID/g
Drug uptake [9]: 13.48 % ID/g
Drug uptake [10]: 18.16 % ID/g
Drug uptake [11]: 19.35 % ID/g
Drug uptake [12]: 10.01 % ID/g
Drug uptake [13]: 2.29 % ID/g
Drug uptake [14]: 4.24 % ID/g
Drug uptake [15]: 7.55 % ID/g
Drug uptake [16]: 9.86 % ID/g
Drug uptake [17]: 6.97 % ID/g
Drug uptake [18]: 9.67 % ID/g
Drug uptake [19]: 14.05 % ID/g
Drug uptake [20]: 7.75 % ID/g
Drug uptake [21]: 5.43 % ID/g
Drug uptake [22]: 2.95 % ID/g
Drug uptake [23]: 2.25 % ID/g
Drug uptake [24]: 1.4 % ID/g
Drug uptake [25]: 8.52 % ID/g
Drug uptake [26]: 5.36 % ID/g
Drug uptake [27]: 6.32 % ID/g
Drug uptake [28]: 2.65 % ID/g
Drug uptake [29]: 0.77 %ID
Drug uptake [30]: 1.7 %ID
Drug uptake [31]: 2.96 %ID
Drug uptake [32]: 2.92 %ID
Drug uptake [33]: 2.45 % ID/g
Drug uptake [34]: 1.75 % ID/g
Drug uptake [35]: 0.74 % ID/g
Drug uptake [36]: 0.23 % ID/g
Ratio [37]: 3.31

[11CH3]Nc1ccc(-c2ccc3ccccc3n2)cc1
Ratio [37]: 3.65

CNc1ccc(/C=C2\Nc3ccc(I)cc3C2=O)cc1
Ki [39]: 112 nM
Ki [40]: 116 nM
Ratio Ki [41]: 1.03
